# Experimental data taken from a melting point compilation (Tetko et al.; mined from patent text by program, amines drawn as free bases though some values may be those of a salt).
row,SMILES,melting point [°C]
1,CCC(C)(C)NC(Nc1ccc2c(c1)OCO2)=C(C#N)C(=O)C(C)(C)C,161 to 165
2,CC(C)(C)C(O)C(Cn1ccnc1)Oc1ccc(Cl)cc1 (stereo not given),163 to 170
3,CCSC1=NCC(=O)N1c1ccc(C)c(Cl)c1,133 to 135
4,COc1c(N2CC[C@H]([C@@H](C)NC(=O)OC(C)(C)C)C2)c(F)cc2c(=O)n(N)c(=O)n(C3CC3)c12,96 to 98
5,CN(C)CC1CCc2cc(NC(=O)N3CCC(c4ccc(F)cc4)CC3)ccc2C1O (stereo not given),160 to 163
6,CCCOc1ccc(S(=O)(=O)N2CCN(CCOC(C)=O)CC2)cc1-c1nc2c(CCCF)cn(CC)c2c(=O)[nH]1,134 to 135
7,COC(=O)CC[C@H](NC(=O)c1cccc(CCC2CNc3nc(NC(=O)C(C)(C)C)nc(O)c3C2)c1)C(=O)OC (stereo not given in full),141 to 148
8,CCCCCCCCCCCCCCCCC(NC(C)=O)(C(=O)OCC)C(=O)OCC,65 to 67
9,CNc1cc(SC2CCN(C)CC2)c(Cl)cc1[N+](=O)[O-],102
10,COc1cc(OC)cc(C(=O)c2ccc(OC(F)F)c(OC(F)F)c2)c1,60 to 62
11,COC1=C(OC)C(=O)C(CCC(=O)NCC(=O)O)=C(C)C1=O,128 to 130
12,NC(=S)NC[C@H]1CN(c2ccc(-n3cncn3)cc2)C(=O)O1,214 to 215
13,O=C(O)C1=Cc2c(Cl)cc(Cl)cc2OC1C(F)(F)F (stereo not given),190 to 191
14,CCCCCCCCCCCCCCCCCCNC(=O)OCC(CNS(=O)(=O)CCCI)NC(=O)OC (stereo not given),97
15,COc1cc(OC)c(CC(=O)c2ccc(C(C)C)c(OS(N)(=O)=O)c2C(C)C)c(OC)c1,159 to 163
16,COC(=O)CCCCC(C[N+](=O)[O-])SCC(=O)O (stereo not given),85 to 91
17,CC(C)(C)OC(=O)n1nc2nc3n(c(=O)c2c1N)CCS3,> 300
18,COC(=O)C1=C(C)N=C(OC)N(C(=O)NCCCC(=O)OC(C)(C)C)C1c1ccc(F)cc1 (stereo not given),135 to 138
19,CCOC(=O)C(C(=O)Nc1ccc(Br)cc1C)[N+](=O)[O-] (stereo not given),126 to 129
20,CC(C)OC(=O)c1ccc2c(c1)ncn2-c1cccc(N2CCN(C)CC2)c1,173 to 174
21,Ic1ccnc2c1CCCN2,117 to 118
22,CN(C)CCCOc1ccc2ccc(N)nc2n1,88

row,SMILES,melting point [°C]
1,CN(CCc1ccncc1)C(=O)CCSc1cc(C(C)(C)C)c(O)c(C(C)(C)C)c1,129 to 132
2,COCC(C)(C)NC(=O)C(OC)Oc1ccc2ccc(Br)cc2c1 (stereo not given),65 to 67
3,CCCCCCCCCCCCCCS(=O)(=O)c1cc(S(C)(=O)=O)ccc1-n1oc(C(C)(C)C)c(CCl)c1=O,110 to 111
4,CCOC(C)OCC(C)C1CCC2C3C=CC4=CC(=O)C5OC5C4(C)C3CCC12C (stereo not given),91 to 93
5,O=C(NCCO)/C(=C/c1ccc(OC(F)(F)F)cc1)NC(=O)c1ccc(OCC2CCC2)cc1,168 to 170
6,CC1(C)CC(OC(=O)CCCCCCCCC(=O)OC2CC(C)(C)N(OC3CCCCC3)C(C)(C)C2)CC(C)(C)N1OC1CCCCC1,56 to 59
7,Cc1nnc(-c2ccnc(NC(=O)OC(C)(C)C)c2)o1,290 to 291
8,O=C1CCCc2ccc([N+](=O)[O-])cc2N1,224 to 226
9,Cc1ccc(-c2coc3c(C)c(C)cc(C)c23)cc1,112 to 113
10,CC1(C)CCC(C)(C)c2cc(C(Br)C(Br)c3ccc(C#N)cc3)ccc21 (stereo not given),174 to 175
11,CSc1sc(C(=O)O)c2c1-c1nc(C)sc1CC2,273 to 274
12,CCOC(=O)c1nc2c(C(=O)OCC)cccn2c1[N+](=O)[O-],139 to 140
13,CC1CCN(c2cc3nc(C(C)(C)C)sc3cc2N=C=S)CC1,54 to 58
14,O=C(c1cccnc1Cl)N(O)C1CCCCC1,151 to 153
15,CCc1c(C)nc2ccc(Cl)cn2c1=O,114 to 116
16,CNC1=Nc2ccc(Cl)cc2N(c2ccccc2)C(=O)C1,215 to 217
17,COC(=O)CS(=O)(=O)Cc1cnc(OC)c([N+](=O)[O-])c1,137 to 140
18,CCOCC1OC(n2cnc3c(N)ncnc32)C(O)C1O (stereo not given),110 to 112
19,CCCCCCCCCCCCNC(=O)c1cc(Br)c(OCCn2ncnn2)c(-c2cccc(C(F)(F)F)c2)c1,75.6 to 76.2
20,C#CCOc1cc(-c2ncnc(C(Cl)Cl)c2Cl)c(F)cc1Cl,86 to 88
21,OC(CN1CCNCC1)C(O)(c1ccccc1)C1CCCC1 (stereo not given),50

# More lines, now with the values ahead:
row,melting point [°C],SMILES
1,138,O=c1c2cc(Cl)ccc2ncn1CCCN1CCC(c2c[nH]c3ccccc23)CC1
2,230,O=C(Nc1cccc(S(=O)(=O)NCc2ccccc2)c1)c1cnn2c(C(F)F)cc(-c3ccc(C(F)(F)F)cc3)nc12
3,233 to 234,CC(C)c1cccc(C(C)C)c1N1C(=O)C(c2ccccc2)=C(c2ccccc2)C1=O
4,160 to 161,CCCCOc1c(CNC(=O)OC(C)(C)C)n(CC2CC2)c(=O)c2ccc(-c3cnco3)cc12
5,227 to 228,COC(=O)c1ccc(-c2nnc(-c3cccc(NS(=O)(=O)c4ccc(C)cc4)c3)o2)cc1
6,255,Cc1cc(C)c2nc(Nc3ccc(CN)cc3)n(Cc3nc(C)ccc3O)c2c1
7,254,O=C(O)CCNC(=O)c1cc([N+](=O)[O-])c2ccccc2c1O
8,149 to 150,CC(=O)NC1=NN(c2ccccc2)CC1C (stereo not given)
9,155 to 156,Cc1oc(-c2ccc3ccccc3c2)nc1COc1ccc(COc2ncccc2CC(=O)O)cc1
10,112 to 115,COc1cc(CC(=O)NCCOc2ccc(C(=O)O)cc2[N+](=O)[O-])ccc1NC(=O)Nc1ccccc1C
11,140 to 145,Cc1cn(-c2ccc(C(=O)N3Cc4cccn4Cc4ccccc43)cc2)cn1
12,179 to 181,CCCNc1nc(-c2ccc(OC)c(OC)c2)nc2sc(C#N)c(C)c12
13,201 to 204,N#Cc1ccc(Oc2ccc3ccc(Oc4ccc(C#N)c(C#N)c4)cc3c2)cc1C#N
14,166 to 168,COc1cccc(CNC(=O)COc2ccn3nc(-c4ccccc4)c(-c4ccc(=O)n(C(C)C)n4)c3c2)c1
15,300 to 320,Cc1c(-c2ccccc2)sc2nc(N3CCOCC3)[nH]c(=O)c12
16,281 to 282,Cc1cc(-c2ccc3c(=O)c(C(=O)O)cn(-c4ccc(F)cc4)c3c2)on1
17,213,C#CCOC(=O)N1c2ccccc2C(=O)Nc2cccnc21
18,95 to 96,CCOC(=O)c1c(C)nc(-c2ccccc2)nc1-c1ccncc1
19,147 to 148,CN(C)c1ccc(/C=C/c2cccc(F)c2)cc1
20,104,COc1ccc(-c2csc(Nc3cc(OC)ccc3OC)n2)cc1
21,223 to 224,Cc1nc(C(O)COc2ccc(CC3SC(=O)NC3=O)cc2)c(C)o1 (stereo not given)
22,94 to 96,CC(C)(C)OC(=O)N1CCC(Nc2ncc3c(n2)-c2ccccc2C(c2ccc(Cl)c(Cl)c2)C3)CC1 (stereo not given)
23,193 to 195,O=C1C(=O)c2ccccc2C2=C1SCC1(CCN(CC(O)c3ccccc3)CC1)O2 (stereo not given)
24,157 to 158,O=S(=O)(NCCCCOc1ccc(-n2ccnc2)cc1)c1ccc2ccccc2c1
25,105 to 110,OCc1cc(CO)c(O)c(-c2ccccc2)c1
26,89 to 92,CCc1cc2c(OCC(=O)OC)cccc2n1Cc1ccccc1

row,melting point [°C],SMILES
1,150,COc1ccc(-c2cn(-c3cccc(OCCn4ccnc4)c3)c3ncnc(N)c23)cc1OCc1ccccc1
2,283 to 286,Cc1cc(N2CCN(C(=O)c3ccc(Nc4ccnc5cc(C(F)(F)F)ccc45)cc3)CC2)nc(N)n1
3,96 to 102,Cc1nc(-c2ccc(-c3ccccc3S(=O)(=O)Nc3onc(C)c3C)cc2)oc1C
4,60 to 61,CC(C)(C)c1ccc(CNC(=O)NCc2ccc(NS(C)(=O)=O)c(Cl)c2)cc1
5,57,Nc1ccccc1SCc1ncon1
6,80,N#Cc1ccsc1-c1ccc(CBr)cc1
7,107 to 111,Cc1ccc(S(=O)(=O)OC[C@H]2CCc3ccc4ccccc4c3O2)cc1
8,148 to 151,Cc1ccc(-c2ccccc2NC(=O)NN)cc1
9,194 to 196,O=c1nc(-c2ccc(NCc3ccccc3)nc2)sc2ccccc12
10,229 to 231,Cc1cc(C(F)(C(F)(F)F)C(F)(F)F)ccc1NC1OC(=O)c2cccc(Cl)c21 (stereo not given)
11,151 to 152,CCCCNC(=O)COc1ccn2nc(-c3ccccc3)c(-c3ccc(=O)n(C(C)C)n3)c2c1
12,188 to 189,Clc1nc(-c2ccccn2)[nH]c1I
13,178,COc1cc2c(cc1OC)CN(CCc1cccc(NC(=O)c3cccc4c(=O)c5cccc(F)c5[nH]c34)c1)CC2
14,114 to 115,COc1cccc(CN2CCCc3cc(O)c(OC)cc3C2)c1
15,204 to 205,c1ccc(N(c2ccccc2)c2ccc(-c3ccc(-c4ccnc(CNc5ccc6ccccc6c5)n4)cc3)cc2)cc1
16,234 to 237,CCCc1nc2c(N)nc3ccccc3c2n1CC1(C(N)=O)CCC1
17,192,Cn1ncnc1COc1nn2c(-c3ccccc3F)nncc2c1-c1ccc(F)cc1
18,290,COC(=O)c1cc(C(=O)c2ncc3ccc(C(=O)O)cn23)ccc1[N+](=O)[O-]
19,90.8 to 91.9,CC(C)(C)ON(O)C(=O)C(C)(C)CSc1ccc(Oc2ccc(Cl)cn2)cc1
20,162 to 166,COC(=O)c1cc(CS(=O)(=O)c2ccccc2)cnc1C1=NC(C)(C(C)C)C(=O)N1C(=O)c1ccccc1 (stereo not given)
21,313 to 314,O=C(O)c1cccc(-c2coc3c(O)c(O)ccc3c2=O)c1
22,130 to 131,CCCN(c1cccc2cc(-c3nccs3)[nH]c12)S(=O)(=O)c1cccs1
23,192 to 193,O=C1c2ccccc2C(=O)N1CC(=O)N1c2ccccc2N(CCCc2ccccc2)C(=O)[C@H]2CCC[C@H]21 (relative stereo)
24,122 to 124,CC(C)OC(=O)NC(=O)C(c1ccccc1)c1ccccc1
25,156 to 158,O=C(O)c1cccc(C=CC(=O)N2CCc3c([nH]c4ccccc34)C2c2ccc3c(c2)OCO3)c1 (stereo not given)
26,220 to 222,CC1CCCCC1C(=O)Nc1ccc(-c2cnc(-c3ccc(NC(=O)C4CCCCCC4)cc3)[nH]2)cc1 (stereo not given)
